The test system of the test is microtubule network in PC-3 cells. Nature of the test: Immunofluorescence assay of microtubule network. It is filed as cell-based, human. The settings on record: 20 nM, 24 h. The procedure: To evaluate the effects of 4k and 5a on intracellular microtubule, immunofluorescence assay was carried out to observe the changes of microtubule network in cell.
PC-3 cells in logarithmic phase were harvested and seeded onto 12-well cell plates with round coverslip on the bottom of each well at a density of 3 × 10^4 cells per well, and were cultured for 24 h. […] The medium was removed, and cells were washed with PBS twice, fixed with 4% formaldehyde in PBS for 30 min, then the solution was removed. Cells were washed with PBS twice, permeabilized with 0.2% (v/v) Triton X-100 in PBS for 30 min, then the solution was removed. Cells were washed with PBS twice, blocking the cells in 5% bovine serum albumin (BSA) for 30 min. Then BSA was removed, and cells were incubated with the primary α-tubulin antibody (Santa Cruz, CA) containing 2% BSA (v/v, 1: 100) overnight at 4 °C.
The following steps were operated in dark environment. The antibody was removed, then cells were washed with PBST twice and were added FITC-conjugated anti-mouse secondary antibody diluted (1:100) with 2% BSA in PBS and incubated at room temperature for 4 h. The cells were then washed with PBST twice, stained with 4′,6-diamidino-2-phenylindole (DAPI) for 30 min at room temperature, and washed with PBS twice. The round coverslips at the bottom of wells were taken out, and the images were photographed by a confocal microscope.

`COc1cc2c(c(OC)c1OC)-c1ccc(OC)c(=O)cc1[C@@H](NC(C)=O)CC2` [Colchicine, reference compound]: the “effect on microtubule network” value is “microtubule network was destroyed”.

The values above are taken from PMC12459184, “Design, synthesis, and bioevaluation of pyrazole-containing tubulin polymerisation inhibitors based on conformational constraint strategy” (Journal of Enzyme Inhibition and Medicinal Chemistry, 2025).
